{"source": "patent US20230414510A1", "about": "(CRITITECH, INC., priority 2020, published 2023)", "key": {"[1]": {"experiment": "Specific surface area (SSA) by BET sorptometry", "format": "physicochemical", "details": "for Surface Area: Table 8", "method": "The BET specific surface area test procedure is a compendial method included in both the United States Pharmacopeia and the European Pharmacopeia.\n(§1) Approximately 63 precipitation runs (approximately 500 mg to 10 grams) were conducted on the RC612B precipitation unit, according to examples provided above. Variables modified between each precipitation are detailed in Tables 1-3 below. The precipitates were analyzed by laser diffraction to determine PSD, BET sorptometry to determine SSA, and SEM to determine habit and support PSD and SSA data.\nSSA determination analyses were conducted on a Porous Materials, Inc., Automated BET Sorptometer BET-202A according to manufacturer's instructions."}, "[2]": {"target": "T1, TMEM16A (Anoctamin-1, Ano1) (Homo sapiens, UniProt Q5XXA6)", "T1 sequence (Q5XXA6 1-986)": "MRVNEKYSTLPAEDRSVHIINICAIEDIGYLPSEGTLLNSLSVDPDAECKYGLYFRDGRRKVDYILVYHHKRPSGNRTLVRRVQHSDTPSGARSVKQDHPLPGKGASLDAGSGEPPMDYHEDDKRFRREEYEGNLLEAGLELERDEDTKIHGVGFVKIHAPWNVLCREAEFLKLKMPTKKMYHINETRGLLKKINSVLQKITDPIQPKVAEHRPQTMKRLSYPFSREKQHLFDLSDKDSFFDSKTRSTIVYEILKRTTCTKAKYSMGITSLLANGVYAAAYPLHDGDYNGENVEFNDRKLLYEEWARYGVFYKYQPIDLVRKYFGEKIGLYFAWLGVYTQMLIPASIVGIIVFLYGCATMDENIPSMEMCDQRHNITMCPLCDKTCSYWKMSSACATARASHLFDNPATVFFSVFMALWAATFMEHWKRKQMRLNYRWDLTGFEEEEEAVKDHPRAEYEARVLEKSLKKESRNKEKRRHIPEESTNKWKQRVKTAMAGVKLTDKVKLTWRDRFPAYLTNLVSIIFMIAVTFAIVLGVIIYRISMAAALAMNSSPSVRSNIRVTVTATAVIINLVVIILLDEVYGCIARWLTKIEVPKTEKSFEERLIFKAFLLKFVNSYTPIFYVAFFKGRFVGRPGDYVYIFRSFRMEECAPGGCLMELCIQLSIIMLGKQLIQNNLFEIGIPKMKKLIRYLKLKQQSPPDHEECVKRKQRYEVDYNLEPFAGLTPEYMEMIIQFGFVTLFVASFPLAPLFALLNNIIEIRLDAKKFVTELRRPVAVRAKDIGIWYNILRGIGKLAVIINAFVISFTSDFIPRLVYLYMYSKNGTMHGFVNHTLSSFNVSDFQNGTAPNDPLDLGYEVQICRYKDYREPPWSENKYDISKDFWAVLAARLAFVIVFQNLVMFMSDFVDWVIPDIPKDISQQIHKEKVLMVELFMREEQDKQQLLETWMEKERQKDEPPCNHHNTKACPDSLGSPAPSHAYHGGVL", "details": "Miner et al., 2019; cited from earlier work"}, "[3]": {"details": "intravenous; Andrews et al., 1982; Schweizer et al., 2018; cited from earlier work"}, "[4]": {"experiment": "Dissolution in 40% isopropanol 37° C., rotating paddle 50 rpm", "format": "physicochemical", "method": "Exemplary processed products were also used for dissolution for comparison to unprocessed/raw material. Dissolution studies were carried out in 40% isopropanol 37° C. with a rotating paddle at 50 rpm."}, "[5]": {"experiment": "Particle size distribution (PSD) by laser diffraction, Malvern Mastersizer 3000 Aero S", "format": "physicochemical", "details": "for Mean Geometric Particle size Dv50: Table 8", "method": "as §1\nPSD analyses were conducted on a Malvern Mastersizer™ 3000 using the Aero S™ dispersion unit according to manufacturer's instructions."}, "[6]": {"experiment": "Tapped density", "format": "physicochemical", "details": "for Bulk Tapped Density: Table 8", "excerpt": "As used herein, the tapped density of a particle is obtained by mechanically tapping a graduated cylinder containing the sample until little further volume change is observed."}, "[7]": {"experiment": "Bulk density (not tapped)", "format": "physicochemical", "excerpt": "As used herein, the bulk density (not tapped) of a particle is the ratio of the mass to the volume (including the interparticulate void volume) of an untapped powder sample."}, "[8]": {"experiment": "Mass median aerodynamic diameter (MMAD) of aerosol, rotating brush generator and TSI Aerodynamic Particle Sizer 3321", "format": "physicochemical", "details": "for GSD: second figure of the MMAD/GSD cell"}, "[9]": {"details": "listed as Milled (micronized) Niclosamide Drug Substance"}, "[10]": {"details": "volume distribution, unit not given in Tables 1-3, 6, 7"}}}
{"smiles": "NCCO.O=C(Nc1ccc([N+](=O)[O-])cc1Cl)c1cc(Cl)ccc1O", "note": "[Niclosamide ethanolamine, niclosamide ethanolamine]", "values": [{"measurement": "SSA", "setting": "[1]; BET, Tables 4, 5", "value": 2.684, "unit": "m^2/g"}]}
{"smiles": "O=C(Nc1ccc([N+](=O)[O-])cc1Cl)c1cc(Cl)ccc1O", "note": "[Niclosamide Drug Substance, niclosamide]", "values": [{"measurement": "Inhibition of TMEM16A", "setting": "[2]", "value": "potent inhibitor"}, {"measurement": "Toxicity when administered intravenously", "setting": "[3]", "value": "substantial toxicity"}, {"measurement": "Dissolution in 40% isopropanol 37C 50 rpm rotating paddle", "setting": "[4]; 5 min", "value": 1.7, "unit": "%"}, {"measurement": "Dissolution in 40% isopropanol 37C 50 rpm rotating paddle", "setting": "[4]; 15 min", "value": 3.8, "unit": "%"}, {"measurement": "Dissolution in 40% isopropanol 37C 50 rpm rotating paddle", "setting": "[4]; 30 min", "value": 6.5, "unit": "%"}, {"measurement": "Dissolution in 40% isopropanol 37C 50 rpm rotating paddle", "setting": "[4]; 60 min", "value": 11.2, "unit": "%"}, {"measurement": "Dissolution in 40% isopropanol 37C 50 rpm rotating paddle", "setting": "[4]; 90 min", "value": 15, "unit": "%"}, {"measurement": "Dissolution in 40% isopropanol 37C 50 rpm rotating paddle", "setting": "[4]; 120 min", "value": 20.6, "unit": "%"}, {"measurement": "Surface Area", "setting": "[1]", "value": 1.359, "unit": "m2/gm"}, {"measurement": "Mean Geometric Particle size Dv50", "setting": "[5]", "value": 21.1, "unit": "microns"}, {"measurement": "Bulk Tapped Density", "setting": "[6]", "value": 0.57, "unit": "gm/cm3"}, {"measurement": "Bulk Density", "setting": "[7]; Table 8", "value": 0.45, "unit": "gm/cm3"}, {"measurement": "MMAD", "setting": "[8]; aerosol from rotating brush generator", "value": 2.64, "unit": "microns"}, {"measurement": "GSD", "setting": "[8]", "value": 1.82}]}
{"smiles": "O=C(Nc1ccc([N+](=O)[O-])cc1Cl)c1cc(Cl)ccc1O", "note": "[Micronized Niclosamide API, niclosamide]", "values": [{"measurement": "Dissolution in 40% isopropanol 37C 50 rpm rotating paddle", "setting": "[4]; 5 min, listed as Milled (micronized) Niclosamide Drug Substance", "value": 2.9, "unit": "%"}, {"measurement": "Dissolution in 40% isopropanol 37C 50 rpm rotating paddle", "setting": "[4]; 15 min, listed as Milled (micronized) Niclosamide Drug Substance", "value": 4.7, "unit": "%"}, {"measurement": "Dissolution in 40% isopropanol 37C 50 rpm rotating paddle", "setting": "[4]; 30 min, listed as Milled (micronized) Niclosamide Drug Substance", "value": 8.4, "unit": "%"}, {"measurement": "Dissolution in 40% isopropanol 37C 50 rpm rotating paddle", "setting": "[4]; 60 min, listed as Milled (micronized) Niclosamide Drug Substance", "value": 12.7, "unit": "%"}, {"measurement": "Dissolution in 40% isopropanol 37C 50 rpm rotating paddle", "setting": "[4]; 90 min, listed as Milled (micronized) Niclosamide Drug Substance", "value": 17.3, "unit": "%"}, {"measurement": "Dissolution in 40% isopropanol 37C 50 rpm rotating paddle", "setting": "[4]; 120 min, listed as Milled (micronized) Niclosamide Drug Substance", "value": 23.3, "unit": "%"}, {"measurement": "Surface Area", "setting": "[1]; [9]", "value": 3.264, "unit": "m2/gm"}, {"measurement": "Mean Geometric Particle size Dv50", "setting": "[5]; [9]", "value": 2.97, "unit": "microns"}, {"measurement": "PSD-Mastersizer Dv-10", "setting": "[5]; [10]", "value": 0.765}, {"measurement": "PSD-Mastersizer Dv-50", "setting": "[5]; [10]", "value": 2.97}, {"measurement": "PSD-Mastersizer Dv-90", "setting": "[5]; [10]", "value": 6.39}, {"measurement": "Bulk Tapped Density", "setting": "[6]; [9]", "value": 0.62, "unit": "gm/cm3"}, {"measurement": "Tapped Density", "setting": "[6]; Tables 1-3 print no unit", "value": 0.619}, {"measurement": "Bulk Density", "setting": "[7]; Table 8, listed as Milled (micronized) Niclosamide Drug Substance", "value": 0.49, "unit": "gm/cm3"}, {"measurement": "Bulk Density", "setting": "[7]; not tapped, Tables 1-3 print no unit", "value": 0.486}, {"measurement": "GSD", "setting": "[8]; [9]", "value": 1.74}]}
